Test results taken from paper PMC6677754, “In silico design and optimization of selective membranolytic anticancer peptides” (Scientific Reports, 2019).
Peptide text beside a SMILES is read from it.

How the values were obtained:
[1] = system: noncancer HDMEC primary cells (human dermal microvascular endothelial cells); assay: Cell viability assay (MTT); assay type: cell-based; conditions: for EC50: Table S2, noncancer primary cells, MTT, 24 h, mean ± sd, N = 2 independent measurements with six technical replicates each (Figs S6-S8)
How it was run: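 Viability by MTT: 10^4 cells/well exposed 24 h to 2-fold peptide dilutions from 100 μM in DMEM, then 1 h with 0.5 mg mL−1 MTT; absorbance at 540 nm relative to peptide-free medium as 100% survival. EC50 from a 3-parameter log-logistic fit.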

[2] = system: Lung cancer cell lines; assay: NCI-60 screening, average of cancer type; assay type: cell-based, human; conditions: for log GI50: Table 5, Lung, averaged over cell lines, 48 h, sulforhodamine B, 10^-4 to 10^-8 M; for Log GI (M): Table S3, Lung, averaged activity for the cancer type, log GI50
Experimental: (§1) NCI-60 screening procedure
(§2) The NCI-60 screening procedure was performed by the Developmental Therapeutics Program of the National Cancer Institute. The procedure was performed as previously described24 in 96-well microtiter plates. Each peptide was tested in a 5-concentration assay, starting at 10^-4 M and diluting 10-fold to the lowest 10^-8 M concentration. The peptides were incubated for 48 h and the cell concentration was assayed by using the sulforhodamine B assay25 and optical density measurements. The growth inhibition (GI50) value24, measures the growth inhibitory power of the drug agent. The GI50 value is the concentration of the test drug for which the condition in Eq. S1 is met, where T is the optical density of the test well after a 48-h exposure to the peptide, T0 the optical density before applying the peptide drug and C the control optical density of a well where no peptide was applied.

[3] = system: Melanoma cell lines; assay: NCI-60 screening, average of cancer type; assay type: cell-based, human; conditions: for log GI50: Table 5, Melanoma, averaged over cell lines, 48 h, sulforhodamine B, 10^-4 to 10^-8 M; for Log GI (M): Table S3, Melanoma, averaged activity for the cancer type, log GI50
Experimental: as §1, §2

[4] = system: Breast cancer cell lines; assay: NCI-60 screening, average of cancer type; assay type: cell-based, human; conditions: for log GI50: Table 5, Breast, averaged over cell lines, 48 h, sulforhodamine B, 10^-4 to 10^-8 M; for Log GI (M): Table S3, Breast, averaged activity for the cancer type, log GI50
Experimental: as §1, §2

[5] = system: CNS cancer cell lines; assay: NCI-60 screening, average of cancer type; assay type: cell-based, human; conditions: for log GI50: Table 5, CNS, averaged over cell lines, 48 h, sulforhodamine B, 10^-4 to 10^-8 M; for Log GI (M): Table S3, CNS, averaged activity for the cancer type, log GI50
Experimental: as §1, §2

[6] = system: Prostate cancer cell lines; assay: NCI-60 screening, average of cancer type; assay type: cell-based, human; conditions: for log GI50: Table 5, Prostate, averaged over cell lines, 48 h, sulforhodamine B, 10^-4 to 10^-8 M; for Log GI (M): Table S3, Prostate, averaged activity for the cancer type, log GI50
Experimental: as §1, §2

[7] = system: Ovarian cancer cell lines; assay: NCI-60 screening, average of cancer type; assay type: cell-based, human; conditions: for log GI50: Table 5, Ovarian, averaged over cell lines, 48 h, sulforhodamine B, 10^-4 to 10^-8 M; for Log GI (M): Table S3, Ovarian, averaged activity for the cancer type, log GI50
Experimental: as §1, §2

[8] = system: Leukemia cell lines; assay: NCI-60 screening, average of cancer type; assay type: cell-based, human; conditions: for log GI50: Table 5, Leukemia, averaged over cell lines, 48 h, sulforhodamine B, 10^-4 to 10^-8 M; for Log GI (M): Table S3, Leukemia, averaged activity for the cancer type, log GI50
Experimental: as §1, §2

[9] = system: Renal cancer cell lines; assay: NCI-60 screening, average of cancer type; assay type: cell-based, human; conditions: for log GI50: Table 5, Renal, averaged over cell lines, 48 h, sulforhodamine B, 10^-4 to 10^-8 M; for Log GI (M): Table S3, Renal, averaged activity for the cancer type, log GI50
Experimental: as §1, §2

[10] = system: Colon cancer cell lines; assay: NCI-60 screening, average of cancer type; assay type: cell-based, human; conditions: for log GI50: Table 5, Colon, averaged over cell lines, 48 h, sulforhodamine B, 10^-4 to 10^-8 M; for Log GI (M): Table S3, Colon, averaged activity for the cancer type, log GI50
Experimental: as §1, §2

Row | SMILES | EC50 [1] [µM] | log GI50 [2] [M] | Log GI (M) [2] [M] | log GI50 [3] [M] | Log GI (M) [3] [M] | log GI50 [4] [M] | Log GI (M) [4] [M] | log GI50 [5] [M] | Log GI (M) [5] [M] | log GI50 [6] [M] | Log GI (M) [6] [M] | log GI50 [7] [M] | Log GI (M) [7] [M] | log GI50 [8] [M] | Log GI (M) [8] [M] | log GI50 [9] [M] | Log GI (M) [9] [M] | log GI50 [10] [M] | Log GI (M) [10] [M] | EC50 value against the noncancer HDMEC primary cell line (in words) ([1]; Fig. 1d, compared with the EC50 against cancer cell lines, N = 3)
1 | CC[C@H](C)[C@H](NC(=O)[C@H](CCCCN)NC(=O)[C@H](CCCCN)NC(=O)[C@@H](NC(=O)[C@@H](NC(=O)[C@@H](N)Cc1c[nH]cn1)[C@@H](C)CC)[C@@H](C)CC)C(=O)N[C@@H](CCCNC(=N)N)C(=O)N[C@H](C(=O)N[C@@H](Cc1c[nH]c2ccccc12)C(=O)N[C@@H](Cc1ccc(O)cc1)C(=O)N[C@@H](CCCNC(=N)N)C(=O)N[C@@H](CCCCN)C(=O)N[C@@H](C)C(=O)N[C@@H](Cc1c[nH]c2ccccc12)C(=O)N[C@@H](Cc1c[nH]cn1)C(=O)N[C@H](C(=O)N[C@@H](CC(C)C)C(=O)NCC(=O)N[C@@H](CCCCN)C(=O)N[C@H](C(N)=O)C(C)C)C(C)C)[C@@H](C)O [Off2] (H-HIIKKIRTWYRKAWHVLGKV-NH2) | 32 ± 3 | −5.4 | -5.37 | −5.3 | -5.33 | −5.4 | -5.36 | −5.2 | -5.21 | −5.5 | -5.46 | −5.2 | -5.17 | −5.2 | -5.17 | −5.3 | -5.28 | −5.2 | -5.24 | 
2 | CC[C@H](C)[C@H](NC(=O)[C@H](CCCNC(=N)N)NC(=O)[C@H](Cc1c[nH]c2ccccc12)NC(=O)[C@@H](NC(=O)[C@H](CCCCN)NC(=O)[C@H](CCCCN)NC(=O)[C@@H](NC(=O)[C@@H](NC(=O)[C@@H](NC(=O)[C@H](CCCCN)NC(=O)[C@H](Cc1ccccc1)NC(=O)[C@H](CCCCN)NC(=O)[C@H](CCCCN)NC(=O)[C@H](Cc1ccccc1)NC(=O)[C@@H](NC(=O)[C@@H](N)CCCCN)[C@@H](C)CC)[C@@H](C)O)[C@@H](C)CC)[C@@H](C)CC)C(C)C)C(=O)N[C@@H](Cc1ccccc1)C(=O)NCC(=O)N[C@@H](CCCNC(=N)N)C(=O)N[C@@H](Cc1ccccc1)C(N)=O [AmphiArc2] (H-KIFKKFKTIIKKVWRIFGRF-NH2) | 3.3 ± 0.2 | −5.6 | -5.65 | −5.6 | -5.64 | −5.6 | -5.65 | −5.6 | -5.63 | −5.7 | -5.72 | −5.6 | -5.60 | −5.5 | -5.50 | −5.7 | -5.67 | −5.6 | -5.57 | same low-micromolar range
